Measurements published in PubChem BioAssay (NCI).
Values joined by “and” are separate entries in the source; they are usually repeats but may differ in a detail not shown here. Identical values can stand only once.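 Briefly, cells in 96-well plates were exposed to five compound concentrations for 48 h, and endpoints were estimated by linear interpolation. At the GI50, growth is halved. TGI marks complete inhibition of growth.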

Tests used:
Assay in all cases: DTP human tumour cell line panel, 48 h
CCRF-CEM leukemia = test system: CCRF-CEM leukemia
COLO 205 colon = test system: COLO 205 colon
HCC-2998 colon = test system: HCC-2998 colon
HOP-62 NSCLC = test system: HOP-62 NSCLC
KM12 colon = test system: KM12 colon
OVCAR-8 ovarian = test system: OVCAR-8 ovarian
RPMI-8226 leukemia = test system: RPMI-8226 leukemia
SF-268 CNS = test system: SF-268 CNS
SK-MEL-5 melanoma = test system: SK-MEL-5 melanoma
SK-MEL-28 melanoma = test system: SK-MEL-28 melanoma

Row | SMILES | TGI (CCRF-CEM leukemia) [µM] | TGI (COLO 205 colon) [µM] | TGI (HCC-2998 colon) | TGI (HOP-62 NSCLC) [µM] | TGI (KM12 colon) [µM] | TGI (OVCAR-8 ovarian) [µM] | TGI (RPMI-8226 leukemia) [µM] | TGI (SF-268 CNS) [µM] | TGI (SK-MEL-5 melanoma) [µM] | TGI (SK-MEL-28 melanoma) [µM] | GI50 (SK-MEL-5 melanoma) [µM] | GI50 (CCRF-CEM leukemia) [µM] | GI50 (COLO 205 colon) [µM] | GI50 (HCC-2998 colon) [µM] | GI50 (HOP-62 NSCLC) [µM] | GI50 (KM12 colon) [µM] | GI50 (OVCAR-8 ovarian) [µM] | GI50 (RPMI-8226 leukemia) [µM] | GI50 (SF-268 CNS) [µM] | GI50 (SK-MEL-28 melanoma) [µM]
1 | CC(C)C1(O)C(c2ccccc2)=C(c2ccccc2)C(c2ccccc2)=C1c1ccccc1 | > 100 | 21.7 | 30.4 µM | 30.1 | 17.9 | > 100 | 5.26 | 27.6 | 22.4 |  |  |  |  |  |  |  |  |  |  | 
2 | COc1ccc(-c2oc3c(OC)c(OC)c(OC)c(O)c3c(=O)c2OC)cc1OC | > 71.3 | > 73.1 | > 67 µM | > 100 | > 100 | > 100 | 59.3 | > 55.1 | 41.7 | > 100 |  |  |  |  |  |  |  |  |  | 
3 | O=C(Nc1ccc(Cl)cc1Cl)C(=O)C(C(=O)c1ccc2ccccc2c1)C1OC(=O)c2ccccc21 (configuration not stated) |  | 57 |  | 27.8 | 31.9 | 34.6 | > 100 |  | 26.1 | 15.3 |  |  |  |  |  |  |  |  |  | 
4 | COC(=O)C1C(O)CC(c2ccccn2)N(Cc2ccccc2)C1c1ccccn1 (configuration not stated) | > 100 | > 100 | > 100 µM | > 100 | > 100 | > 100 | > 100 | > 100 | > 100 | > 100 |  |  |  |  |  |  |  |  |  | 
5 | COC1=CC(=O)C2C(C1=O)[C@@H]1c3ccccc3C[C@H]21 (some centres not stated) | > 100 | > 100 | > 100 µM | > 100 | > 100 | > 100 | > 100 | > 100 | > 100 | > 100 |  |  |  |  |  |  |  |  |  | 
6 | O=C(O)COc1ccc(O)c2c1C(=O)CCCC2=O | > 100 | > 100 | > 100 µM | > 100 | > 100 | > 100 | > 100 | > 100 | > 100 | > 100 |  |  |  |  |  |  |  |  |  | 
7 | COc1ccc(-c2cc(=O)c3c(C)cc(C)nc3[nH]2)cc1 | 43.2 | 42.6 | > 100 µM | > 100 | > 100 | > 100 | 54.6 | > 100 | 33.1 | > 100 | 17.6 |  |  |  |  |  |  |  |  | 
8 | O=C1C(c2c[nH]c3ccccc23)=C(c2c[nH]c3ccccc23)C(=O)N1O | > 25 | > 25 | > 25 µM | > 25 | > 25 | > 25 | > 25 | > 25 | > 25 | > 25 | > 25 | > 25 | > 25 | > 25 | > 25 | > 25 | > 25 | > 25 | > 25 | > 25
9 | OCCCOC(c1ccccc1)(c1ccccc1)c1ccccc1 | > 100 | > 100 | > 100 µM | > 100 | > 100 | > 100 | > 100 | > 100 | > 100 | > 100 |  |  |  |  |  |  |  |  |  | 
10 | O=CC(O)C(O)C(O)C(O)C(=O)NCCCCCCCCCCCCNC(=O)C(O)C(O)C(O)C(O)C=O (configuration not stated) | > 100 | > 100 | > 100 µM | > 100 | > 100 | > 100 |  | > 100 | > 100 | > 100 |  |  |  |  |  |  |  |  |  | 
11 | CC1CCP(=O)(c2ccccc2)c2ccccc21 (configuration not stated) | > 100 | > 100 | > 100 µM | > 100 | > 100 | > 100 | > 100 |  | > 100 | > 100 |  |  |  |  |  |  |  |  |  | 
12 | CC(=O)/C(=C/n1c(=S)[nH]c2ccccc21)C(=O)Nc1ccccc1C |  | > 100 | > 100 µM | > 100 | > 100 | > 100 |  | > 100 | > 100 | > 100 |  |  |  |  |  |  |  |  |  | 
13 | CCCCc1c2c(nc3c1CCc1cc4cc5c(nc4nc1-3)-c1nc3c(c(CCCC)c1CC5)CCCC3)CCCC2 | > 100 | > 100 | > 100 µM | > 100 | > 100 | > 100 | > 100 | > 100 |  | > 100 |  |  |  |  |  |  |  |  |  | 
14 | COc1cc(/C=C\c2ccc(C)cc2)cc(OC)c1OC | < 0.044 | 0.144 | 0.215 µM and < 0.0303 µM | 34.1 |  |  | 25.2 | > 63.3 |  |  |  |  |  | < 0.0129 |  |  |  |  | < 0.0136 | 
15 | CC(=O)N[C@@H]1C(O)CN2C(=O)C(=O)O[C@H](C(O)CO)[C@@H]12 (some centres not stated) | > 100 | > 100 | > 100 µM | > 100 | > 100 | > 100 | > 100 | > 100 |  | > 100 |  |  |  |  |  |  |  |  |  | 
16 | CCOC(=O)C1=C(C(=O)c2ccc(C)cc2)C(c2cccc([N+](=O)[O-])c2)C(C(=O)c2ccc(C)cc2)=C(C(=O)OCC)N1 | 8.57 | 4.03 |  | 41 | 25.4 | 45 |  | 46.1 | 33.1 | 34.2 |  |  |  |  |  |  |  |  |  | 
17 | Cn1nc(-c2ccccc2)c(C(=O)/C=C/c2ccc(F)cc2)c(N2CCCCC2)c1=O | 6.46 | 14.1 |  |  |  | 75.6 | 6.98 | 37 | 19.7 | 16.2 |  |  |  |  |  |  |  |  |  | 
18 | CCOC(=O)/C(O)=C/c1cc(OC)cc(=O)o1 | > 100 | > 100 | > 100 µM |  | > 100 | > 100 | > 100 | > 100 | > 100 | > 100 |  |  |  |  |  |  |  |  |  | 
19 | O=C(Nc1ccc(F)cc1)c1ccc(NC2=C(Cl)C(=O)N(Cc3ccccc3)C2=O)cc1 |  | > 100 | > 100 µM |  | 38 | 30.9 | 12.3 | 23.6 | 63.7 | 39.5 | 18.5 |  | 22.1 | 11 |  | 15.9 | 4.66 | 3.43 | 4.4 | 16.5
20 | O=C(O)[C@@H]1[C@H](C(=O)O)[C@H](C(=O)O)C[C@@H]1C(=O)O |  | > 100 |  | > 100 | > 100 | > 100 | > 100 | > 100 | > 100 | > 100 |  |  |  |  |  |  |  |  |  | 
21 | NCCCOCC(=O)O |  | > 100 | > 100 µM |  | > 100 | > 100 | > 100 | > 100 | > 100 | > 100 |  |  |  |  |  |  |  |  |  | 
22 | Nc1nc2c(c(=O)[nH]1)NC(CO)CN2 (configuration not stated) | > 100 | > 100 |  | > 100 | > 100 | > 100 | > 100 |  |  | > 100 |  |  |  |  |  |  |  |  |  | 
